Tests used:
human G9a enzyme = human G9a enzyme (Homo sapiens (Human), UniProt Q96KQ7); test: G9a enzyme activity assay (TR-FRET); type: biochemical; conditions: 1 hour at room temperature
Method: G9a Enzyme Activity Assay
The biochemical assay to measure G9a enzyme activity relies on time-resolved fluorescence energy transfer (TR-FRET) between europium cryptate (donor) and XL665 (acceptor). TR-FRET is observed when biotinylated histone monomethyl-H3K9 peptide is incubated with cryptate-labeled anti-dimethyl-histone H3K9 antibody (CisBio Cat#61KB2KAE) and streptavidin XL665 (CisBio Cat#610SAXLA), after enzymatic reaction of G9a.
The human G9a enzyme expressed in a baculovirus infected Sf9 cell expression system was obtained from BPS Biosciences (Cat. #51001). Enzyme activity assay was carried out in a white 384-well plate in a final volume of 20 μl, as follow: • 4 μl of vehicle or studied compound 2.5× concentrated prepared in assay buffer (50 mM Tris-HCl, 10 mM NaCl, 4 mM DTT, 0.01% Tween-20 pH9). Final percentage of DMSO was 0.5%. • 2 μl of 1 nM G9a enzyme diluted in assay buffer. Final concentration was 0.2 nM. • Start the reaction by adding 4 μl of substrate mixture containing 20 μM S-adenosylmethionine and 40 nM biotinylated histone monomethyl-H3K9 peptide. • Reaction was carried out during 1 hour at room temperature. • Enzyme activity was stopped by adding 5 μl of cryptate-labeled anti-dimethyl-histone H3K9 antibody. Final concentration 150 nM. • Then, add 5 μl of streptavidin XL665 beads. Final concentration of 16 μM. • Read the plate after 1 hour of incubation at room temperature.
(§1) For each well, fluorescence was measured at 620 nm and 665 nm. A ratio (665 nm/620 nm) was then calculated in order to minimize medium interferences. Positive control was obtained in the presence of the vehicle of the compounds. Negative control was obtained in the absence of G9a enzyme activity. Calculated IC50 values were determined using GraphPrism using 4-parameters inhibition curve.

human DNMT1 = human DNMT1 (Homo sapiens (Human), UniProt P26358); test: DNMT1 enzyme activity assay (TR-FRET, EPIgeneous methyltransferase assay); type: biochemical; conditions: 15 minutes at 37° C.
Method: DNMT1 Enzyme Activity Assay
The biochemical assay to measure DNMT1 enzyme activity relies on time-resolved fluorescence energy transfer (TR-FRET) between lumi4-Tb (donor) and d2 (acceptor) using the EPlgeneous methyltransferase assay (CisBio Cat#62SAHPEB). TR-FRET is observed when antibody specific to S-adenosylhomocysteine labeled with Lumi4-Tb is incubated with d2-labeled S-adenosylhomocysteine. TR-FRET signal is inversely proportional to the concentration of SAH, product of DNMT1 enzyme activity, in the sample. The human DNMT1 was obtained from Reaction Biology Corp. (Cat# DMT-21-124).
Enzyme activity assay was carried out in a white 384-well plate in a final volume of 20 μl, as follow: • 4 μl of vehicle or studied compound 2.5× concentrated prepared in assay buffer (50 mM Tris-HCl, 1 mM EDTA, 1 mM DTT, 0.1% Triton X-100, 5% glycerol pH 7.5). Final percentage of DMSO was 0.5%. • 2 μl of […] DNMT1 enzyme diluted in assay buffer. Final concentration was 20 nM. • Start the reaction by adding 4 μl of substrate mixture containing 1 μM S-adenosylmethionine and 1 μM poly-deoxy inosine poly-deoxy cytosine (pdI-pdC) DNA. • Reaction was carried out during 15 minutes at 37° C. • Enzyme activity was stopped by adding 2 μl of buffer one of the EPIgeneous methyltransferase assay. • After 10 minutes at room temperature, it was added 4 μl of antibody specific to S-adenosylhomocysteine labeled with Lumi4-Tb 50× diluted in buffer two of the EPIgeneous methyltransferase assay. • Add 4 μl of d2-labeled S-adenosylhomocysteine 31× diluted in buffer two of the EPIgeneous methyltransferase assay. • Read the plate after 1 hour of incubation at room temperature.
as §1

[1] = tested on: CEMO-1 cells (acute lymphocytic leukemia, ALL); test: Cell proliferation assay (CellTiter 96 Aqueous One), CEMO-1; type: cell-based; conditions: CEMO-1 (ALL), 48 hours of treatment
Method: (§2) Cell proliferation was analyzed after 48 hours of in vitro treatment using the CellTiter 96 Aqueous One Solution Cell Proliferation Assay (Promega, Madison, W). This is a colorimetric method for determining the number of viable cells in proliferation.
(§3) For the assay, suspension cells were cultured by triplicate at a density of 1×10^6 cells/ml in 96-well plates (100.000 cells/well, 100 μl/well), except for OCI-Ly3 and OCI-Ly10 cell lines which were cultured at a density of 0.5×10^6 cells/ml (50,000 cells/well, 100 μl/well) and for HepG2, Hep3B and PLC/PRF/5 cell lines which were cultured at a density of 3000 cells/well, 100 μl/well). Adherent cells were obtained from 80-90% confluent flasks and 100 μl of cells were seeded at a density of 5000 cells/well in 96-well plates by triplicate. Before addition of the compounds, adherent cells were allowed to attach to the bottom of the wells for 12 hours. In all cases, only the 60 inner wells were used to avoid any border effects.
(§4) After 48 hours of treatment, plates with suspension cells were centrifuged at 800 g for 10 minutes and medium was removed. The plates with adherent cells were flicked to remove medium. Then, cells were incubated with 100 μl/well of medium and 20 μl/well of CellTiter 96 Aqueous One Solution reagent. After 1-3 hours of incubation at 37° C., absorbance was measured at 490 nm in a 96-well plate reader. The background absorbance was measured in wells with only cell line medium and solution reagent. Data was calculated as a percentage of total absorbance of treated cell/absorbance of non treated cells.
(§5) These cancer cell lines and primary cultures correspond to acute lymphocytic leukemia (ALL), CEMO-1, to activated B-cell-like diffuse large B-cell lymphoma (ABC-DLBCL), OCI-Ly3 and OCI-Ly10 and to hepatocellular carcinoma cells (HCC), HepG2, Hep3B and PLC/PRF/5.

[2] = tested on: OCI-Ly3 cells (ABC-DLBCL); test: Cell proliferation assay (CellTiter 96 Aqueous One), OCI-Ly3; type: cell-based; conditions: Homo sapiens, 48 hours of treatment
Method: as §2
as §3, with “In all cases, only the 60 inner wells were used to avoid any border effects.” left out
as §4, with “The plates with adherent cells were flicked to remove medium. Then, cells were incubated with 100 μl/well of medium and 20 μl/well of CellTiter 96 Aqueous One Solution reagent.” left out, “cells. […]” for “cells.”

[3] = tested on: OCI-Ly10 cells (ABC-DLBCL); test: Cell proliferation assay (CellTiter 96 Aqueous One), OCI-Ly10; type: cell-based; conditions: Homo sapiens, 48 hours of treatment
Method: as §2
as §3, with “In all cases, only the 60 inner wells were used to avoid any border effects.” left out
as §4, with “The plates with adherent cells were flicked to remove medium. Then, cells were incubated with 100 μl/well of medium and 20 μl/well of CellTiter 96 Aqueous One Solution reagent.” left out, “cells. […]” for “cells.”

[4] = tested on: HepG2 cells (hepatocellular carcinoma); test: Cell proliferation assay (CellTiter 96 Aqueous One), HepG2; type: cell-based; conditions: HepG2 (HCC), 48 hours of treatment
Method: as §2, §3, §4, §5

[5] = tested on: Hep3B cells (hepatocellular carcinoma); test: Cell proliferation assay (CellTiter 96 Aqueous One), Hep3B; type: cell-based; conditions: Hep3B (HCC), 48 hours of treatment
Method: as §2, §3, §4, §5

[6] = tested on: PLC/PRF/5 cells (hepatocellular carcinoma); test: Cell proliferation assay (CellTiter 96 Aqueous One), PLC/PRF/5; type: cell-based; conditions: PLC/PRF/5 (HCC), 48 hours of treatment
Method: as §2, §3, §4, §5

Chain of human G9a enzyme (Q96KQ7 whole entry): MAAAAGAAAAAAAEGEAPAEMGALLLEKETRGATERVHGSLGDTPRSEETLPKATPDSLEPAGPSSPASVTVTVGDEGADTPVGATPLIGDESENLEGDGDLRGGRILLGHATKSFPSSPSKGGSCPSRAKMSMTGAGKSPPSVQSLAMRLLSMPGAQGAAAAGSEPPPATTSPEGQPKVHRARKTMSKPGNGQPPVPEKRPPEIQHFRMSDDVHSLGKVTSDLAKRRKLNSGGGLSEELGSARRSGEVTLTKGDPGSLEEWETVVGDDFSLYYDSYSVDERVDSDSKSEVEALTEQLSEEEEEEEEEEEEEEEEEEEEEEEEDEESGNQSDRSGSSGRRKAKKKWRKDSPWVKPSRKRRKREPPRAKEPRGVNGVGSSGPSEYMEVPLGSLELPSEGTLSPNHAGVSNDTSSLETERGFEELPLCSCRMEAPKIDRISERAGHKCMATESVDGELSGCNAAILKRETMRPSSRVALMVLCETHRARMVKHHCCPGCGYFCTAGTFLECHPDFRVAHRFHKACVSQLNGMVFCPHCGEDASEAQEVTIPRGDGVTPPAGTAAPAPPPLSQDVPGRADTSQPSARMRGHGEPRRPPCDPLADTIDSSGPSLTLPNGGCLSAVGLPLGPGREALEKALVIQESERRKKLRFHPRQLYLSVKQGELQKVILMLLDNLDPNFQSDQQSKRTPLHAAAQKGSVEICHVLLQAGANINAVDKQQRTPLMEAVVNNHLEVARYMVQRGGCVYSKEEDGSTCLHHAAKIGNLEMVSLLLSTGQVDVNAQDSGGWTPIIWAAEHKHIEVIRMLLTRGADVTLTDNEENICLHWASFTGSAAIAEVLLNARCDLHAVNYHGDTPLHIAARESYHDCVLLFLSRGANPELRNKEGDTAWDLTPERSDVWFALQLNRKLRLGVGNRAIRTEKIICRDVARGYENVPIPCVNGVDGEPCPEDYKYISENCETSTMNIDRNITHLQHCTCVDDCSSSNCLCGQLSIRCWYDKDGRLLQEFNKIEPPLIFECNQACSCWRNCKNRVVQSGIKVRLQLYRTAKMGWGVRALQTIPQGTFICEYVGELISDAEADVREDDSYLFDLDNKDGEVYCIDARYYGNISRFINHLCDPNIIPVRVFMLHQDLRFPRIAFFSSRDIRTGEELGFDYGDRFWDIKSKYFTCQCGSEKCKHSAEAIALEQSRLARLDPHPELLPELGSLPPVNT
Chain of human DNMT1 (P26358 whole entry): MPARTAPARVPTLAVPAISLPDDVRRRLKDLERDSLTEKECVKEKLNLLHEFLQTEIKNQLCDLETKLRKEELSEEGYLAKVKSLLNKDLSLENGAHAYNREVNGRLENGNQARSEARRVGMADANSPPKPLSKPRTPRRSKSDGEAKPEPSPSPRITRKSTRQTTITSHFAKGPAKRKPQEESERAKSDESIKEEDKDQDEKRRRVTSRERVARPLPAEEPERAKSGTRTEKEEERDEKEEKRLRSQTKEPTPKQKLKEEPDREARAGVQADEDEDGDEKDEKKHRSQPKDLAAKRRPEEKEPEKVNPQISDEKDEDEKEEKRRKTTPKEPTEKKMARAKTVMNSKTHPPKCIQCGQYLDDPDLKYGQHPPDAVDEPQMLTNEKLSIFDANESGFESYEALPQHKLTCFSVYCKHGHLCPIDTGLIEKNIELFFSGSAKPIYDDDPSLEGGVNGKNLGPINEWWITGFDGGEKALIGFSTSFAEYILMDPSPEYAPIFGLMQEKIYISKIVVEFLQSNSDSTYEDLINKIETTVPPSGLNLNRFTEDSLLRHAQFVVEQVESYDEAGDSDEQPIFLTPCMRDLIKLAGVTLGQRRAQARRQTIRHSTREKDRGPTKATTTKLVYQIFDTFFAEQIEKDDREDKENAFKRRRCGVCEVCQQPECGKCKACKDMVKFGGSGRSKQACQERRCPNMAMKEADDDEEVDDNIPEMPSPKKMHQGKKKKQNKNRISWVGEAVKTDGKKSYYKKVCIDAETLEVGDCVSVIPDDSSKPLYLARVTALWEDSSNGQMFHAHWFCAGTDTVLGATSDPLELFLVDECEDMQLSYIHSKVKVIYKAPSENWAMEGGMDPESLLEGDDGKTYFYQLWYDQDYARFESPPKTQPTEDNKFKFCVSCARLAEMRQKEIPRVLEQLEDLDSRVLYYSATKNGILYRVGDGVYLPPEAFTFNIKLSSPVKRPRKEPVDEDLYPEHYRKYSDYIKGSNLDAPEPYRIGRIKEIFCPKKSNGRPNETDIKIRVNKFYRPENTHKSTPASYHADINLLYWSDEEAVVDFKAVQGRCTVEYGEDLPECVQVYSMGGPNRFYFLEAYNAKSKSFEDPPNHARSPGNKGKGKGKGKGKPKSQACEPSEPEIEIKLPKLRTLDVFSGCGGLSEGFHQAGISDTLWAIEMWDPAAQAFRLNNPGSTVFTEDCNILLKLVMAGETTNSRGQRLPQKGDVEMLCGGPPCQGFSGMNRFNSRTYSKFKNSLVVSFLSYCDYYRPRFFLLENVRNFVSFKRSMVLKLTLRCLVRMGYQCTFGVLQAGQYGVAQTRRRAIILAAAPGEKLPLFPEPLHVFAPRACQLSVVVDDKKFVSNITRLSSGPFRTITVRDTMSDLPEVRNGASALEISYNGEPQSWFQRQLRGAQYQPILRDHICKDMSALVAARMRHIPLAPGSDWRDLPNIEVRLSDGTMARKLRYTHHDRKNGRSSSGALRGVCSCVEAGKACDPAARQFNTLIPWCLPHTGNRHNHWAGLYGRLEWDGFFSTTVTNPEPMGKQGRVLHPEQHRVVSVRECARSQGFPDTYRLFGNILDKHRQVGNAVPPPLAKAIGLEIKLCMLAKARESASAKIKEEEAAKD

SMILES	IC50 (human G9a enzyme)	IC50 (human DNMT1)	GI50 [1]	GI50 [2]	GI50 [3]	GI50 ([4]; Homo sapiens)	GI50 ([5]; Homo sapiens)	GI50 ([6]; Homo sapiens)	GI50 [4]	GI50 [5]	GI50 [6]
COc1cc2c(cc1OCCCN1CCCC1)nc(-c1ccc(C)o1)c1cc(CC3CCN(C)CC3)[nH]c12 [Compound 1-02, 8-methoxy-4-(5-methyl-2-furyl)-2-[(1-methyl-4-piperidyl)methyl]-7-(3-pyrrolidin-1-ylpropoxy)-1H-pyrrolo[3,2-c]quinoline]	0.1 to 0.5 µM	0.1 to 0.5 µM	0.1 to 1 µM	0.1 to 1 µM	1 to 10 µM	1 to 10 µM	1 to 10 µM	0.1 to 1 µM	–	–	–
COc1cc2c(cc1OCCCN1CCCC1)nc(-c1ccc(C)o1)c1cc(CC3CCN(C(C)C)CC3)[nH]c12 [Compound 1-03, 2-[(1-isopropyl-4-piperidyl)methyl]-8-methoxy-4-(5-methyl-2-furyl)-7-(3-pyrrolidin-1-ylpropoxy)-1H-pyrrolo[3,2-c]quinoline]	0.1 to 0.5 µM	0.5 to 1 µM	1 to 10 µM	–	–	1 to 10 µM	1 to 10 µM	0.1 to 1 µM	–	–	–
COc1cc2c3c(c(-c4ccc(C)o4)nc2cc1OCCCN1CCCC1)CCC(CC1CCN(C2CC2)CC1)N3 (centres unmarked) [Compound 2-07, 2-[(1-cyclopropyl-4-piperidyl)methyl]-9-methoxy-5-(5-methyl-2-furyl)-8-(3-pyrrolidin-1-ylpropoxy)-1,2,3,4-tetrahydrobenzo[h][1,6]naphthyridine]	< 0.1 µM	0.5 to 1 µM	1 to 10 µM	–	–	1 to 10 µM	1 to 10 µM	1 to 10 µM	–	–	–
CCc1ccc(-c2nc3cc(OCCCN4CCCC4)c(OC)cc3c3[nH]c(CC4CCN(C)CC4)cc23)o1 [Compound 1-04]	0.1 to 0.5 µM	0.5 to 1 µM	0.1 to 1 µM	–	–	–	–	–	1 to 10 µM	1 to 10 µM	0.1 to 1 µM
COc1cc2c3c(c(-c4ccc(C)o4)nc2cc1OCCCN1CCCC1)CCC(CC1CCN(C)CC1)N3 (centres unmarked) [Compound 2-06, 9-methoxy-5-(5-methyl-2-furyl)-2-[(1-methyl-4-piperidyl)methyl]-8-(3-pyrrolidin-1-ylpropoxy)-1,2,3,4-tetrahydrobenzo[h][1,6]naphthyridine]	< 0.1 µM	0.1 to 0.5 µM	1 to 10 µM	–	–	≥ 10 µM	≥ 10 µM	1 to 10 µM	–	–	–
COc1cc2c3c(c(-c4ccc(C)o4)nc2cc1OCCCN1CCCC1)CCC(CC1CCN(C(C)C)CC1)N3 (centres unmarked) [Compound 2-08, 2-[(1-isopropyl-4-piperidyl)methyl]-9-methoxy-5-(5-methyl-2-furyl)-8-(3-pyrrolidin-1-ylpropoxy)-1,2,3,4-tetrahydrobenzo[h][1,6]naphthyridine]	< 0.1 µM	0.5 to 1 µM	1 to 10 µM	–	–	1 to 10 µM	1 to 10 µM	1 to 10 µM	–	–	–
